Patent US20030060485A1, “(+)-norcisapride” (priority 1997, published 2003)
Read-outs that look alike come from different tables or passages of the source.

Assays:
[1] = system: MgSO4-induced intestinal lavage; experiment: MgSO4 induced intestinal lavage in dogs; format: in vivo, Beagle dogs; conditions: Canis lupus familiaris, p.o., 1 hour before magnesium sulphate challenge
Procedure: Beagle dogs (of both sexes and varying in body weight, 16 hours deprived from food) were orally pretreated with (+)-norcisapride or solvent and challenged 1 hour later with an oral administration of magnesium sulphate (MgSO4.7H2O, 64g/l, 0.26M; 200 ml). The onset of MgSO4-induced intestinal lavage was assessed over a period of 4 hours after challenge. Liquid stools within 4 hours occured almost never in control animals treated with distilled water (2.5% false positives; n=200) and were considered to reflect significant acceleration of the MgSO4-induced intestinal lavage. Doses in the active dose range were given to five animals each, tested in separate experimental sessions including solvent-treated control animals. All-or-none criteria, based on the distribution of the results obtained in a large number of solvent-treated animals, were used to calculate ED50-values (effective dose) and 95% confidence limits according to Finney's iterative method (Finney, 1962).

[2] = system: central dopamine antagonism (apomorphine challenge); experiment: Apomorphine, tryptamine, norepinephrine (ATN) test in rats: apomorphine challenge; format: in vivo; conditions: Rattus norvegicus, subcutaneous pretreatment, central dopamine antagonistic activity
Text: (§1) The absence of central dopamine antagonistic and serotonin antagonistic activity of the subject compounds is evidenced by the experimental data obtained in the combined apomorphine (APO), tryptamine (TRY) and norepinephrine (NOR) test in rats. Said combined apomorphine, tryptamine and norepinephrine test is described in Arch. Int. Pharmacodyn., 227, 238-253 (1977) and provides an empirical evaluation of the relative specificity with which drugs may effect particular neurotransmitter systems centrally (CNS) as well as peripherally. […] Central dopamine antagonism is evaluated by challenging rats, subcutaneously pretreated with different doses of the test compound, with apomorphine which is a dopamine agonist. Next, serotonin antagonism is evaluated by challenging the same rats, subcutaneously pretreated with different doses of the test compound, with tryptamine which is an agonist at serotonin 5HT2-receptors. Both central and peripheral serotonin antagonism can be assessed in this test. Centrally acting serotonin antagonists are potential antipsychotic drugs, in particular when simultaneously displaying dopamine antagonism in the first part of this test. Finally, α-adrenergic antagonistic activity of the test compounds is evaluated by challenging the same rats, subcutaneously pretreated with different doses of the test compound, with norepinephrine which is an a-adrenergic agonist. […]

[3] = system: serotonin 5HT2-receptors (tryptamine challenge); experiment: Apomorphine, tryptamine, norepinephrine (ATN) test in rats: tryptamine challenge; format: in vivo; conditions: subcutaneous pretreatment
Text: as §1

[4] = system: α-adrenergic (norepinephrine challenge); experiment: Apomorphine, tryptamine, norepinephrine (ATN) test in rats: norepinephrine challenge; format: in vivo; conditions: Rattus norvegicus, subcutaneous pretreatment
Text: as §1

[5] = target: T1, 5-HT3 receptor (Cavia porcellus, UniProt O70212); experiment: 5-hydroxykynuramine antagonism on the guinea-pig ileum; format: cell-based, Guinea pigs; conditions: guinea-pig ileum segments; 5-OH-K 3.10^-6 M; read-out: IC50 reducing the 5-OH-K induced effect by 50%
T1 construct: from tissue; host or cells: guinea-pig ileum segments in organ bath
T1 sequence (O70212 24-490 limits assumed): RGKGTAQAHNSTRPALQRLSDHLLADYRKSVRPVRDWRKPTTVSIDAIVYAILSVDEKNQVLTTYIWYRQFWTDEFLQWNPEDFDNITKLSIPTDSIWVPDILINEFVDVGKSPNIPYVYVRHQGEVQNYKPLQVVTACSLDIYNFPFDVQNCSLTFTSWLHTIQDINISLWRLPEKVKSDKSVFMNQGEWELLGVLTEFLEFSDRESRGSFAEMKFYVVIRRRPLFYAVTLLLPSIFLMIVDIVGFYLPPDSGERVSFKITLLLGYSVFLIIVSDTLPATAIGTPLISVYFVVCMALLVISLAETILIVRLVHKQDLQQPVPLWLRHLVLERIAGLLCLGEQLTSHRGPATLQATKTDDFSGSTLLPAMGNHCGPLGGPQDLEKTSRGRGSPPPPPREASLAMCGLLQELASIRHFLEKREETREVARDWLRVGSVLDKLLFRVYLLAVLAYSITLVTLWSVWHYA
Procedure: Since 5-OH—K (5-hydroxykynuramine) is a specific agonist at the 5-HT3 receptor, this test evaluates the potential 5-HT3 antagonistic effects.
Guinea pigs of both sexes, body weight±450 g, were killed by decapitation. Non-terminal, (distal 10 cm discarded), intact ileum segments, strips were cleansed, 4.5 cm long, were vertically suspended with a preload of 0.75 g in an 100 ml bath for isotonic recording; [(Displacement Transducer Control Unit; Janssen Scientific Instrument Division), HP7 DGDT-1000 (Hewlett-Packard CY)]. The organ bath was filled with a Tyrode solution, (37.5° C.), gassed with a mixture of 95% O2 and 5% CO2. After a stabilisation period of 20 minutes, methacholine (3.10^−6 M, 30 seconds contacttime) was added to the bathfluid in order to evaluate the potential maximal contraction, whereafter the bathfluid was refreshed, Subsequently, the serotonin agonist 5-OH-K (30 seconds contact time) was added (final concentration 3.10^−6 M) at intervals of 10 minutes, the bath fluid being refreshed 30 seconds after each addition. After reaching reproducible contractile effects, a single dose of the test compound was added to the bath fluid followed 5 minutes later by addition of 5-OH—K. After establishing the log concentration-responds curve of the test compound, IC50 values reducing the 5-OH—K induced effect by 50% were calculated by linear regression analysis.

[6] = system: guinea-pig ileum longitudinal muscle layer with myenteric plexus; experiment: Guinea-pig ileum coaxial stimulation; format: cell-based, Dunkin-Hartley guinea-pigs; conditions: Cavia porcellus; guinea-pig ileum strips, electrical stimulation 0.1 Hz, 1 ms, submaximal; read-out: EC50 (concentration that stimulates the response to electrical stimulation by 50%)
Text: Dunkin-Hartley guinea-pigs of either sex (weighing between 600-900 g) were killed by decapitation. The ileum was removed and cleansed with warmed and oxygenated Krebs-Henseleit solution. Parts of the ileum (15 cm) were slipped over a glass pipette. The longitudinal muscle layer with myenteric plexus was removed by means of a cotton thread moistened with Krebs solution. Strips with a length of 8 cm were folded and these strips (4 cm) were mounted between two platinum electrodes (8 cm length, 0.5 cm apart). The strips were suspended with a preload of 1.5 g in 100 ml Krebs-Henseleit solution (37.5° C.), gassed with a mixture of 95% O2 and 5% CO2. The preparations were excited with single rectangular stimuli [1 ms; 0.1 Hz; submaximal response (current leading to 80% of maximal response), from a programmable stimulator (Janssen Scientific Instruments Division)]. Contractions were measured isometrically (Statham UC2, Janssen Scientific Instruments amplifier, Kipp BD-9 pen-recorder). During the stabilization period of 30 minutes, the strips were repeatedly stretched, in order to obtain a steady state tension of 1.5 g. Before starting the electrical stimulation, a cumulative concentration response curve of acetylcholine (3.10^−9, 10^−8, 3.10^−8 and 10^−7 M) was given. The bath fluid was replaced with fresh Krebs solution and the strips were allowed to stabilize for another 30 minutes. […]

[7] = system: guinea-pig colon ascendens; experiment: Guinea-pig colon coaxial stimulation; format: cell-based, Guinea-pigs; conditions: Cavia porcellus; guinea-pig colon ascendens segments; read-out: EC50 (concentration that stimulates the maximal tone effect by 50%)
Procedure: Guinea-pigs of both sexes (body weight±450 g), were killed by decapitation. The colon ascendens was removed and rinsed, whereafter segments of approximately 3 cm length were prepared. These strips were suspended in an organ bath (100 ml) and connected to an isotonic transducer under a preload of 2 g; [Displacement Transducer Control Unit (Janssen Scientific Instrument Division); HP 7 DGDT 1000 (Hewlett-Packard)]. The organ bath was filled with a DeJalon solution (37.5° C.), gassed with a mixture of 95% O2 and 5% CO2. After a stabilization period of 20 minutes, methacholine 3.10^−6 M was added to the bathfluid in order to evaluate the potential maximal effect of the strip (contact time 30 seconds); thereafter, the bathfluid was refreshed. This was repeated at intervals of 10 minutes until a reproducible answer was obtained after addition of methacholine. Thereafter, the test compound was added for 10 minutes. Afterwards, without refreshing the bathfluid, cisapride 3.10^−7 M was added to evaluate a possible 5HT4 effect. When the contraction, caused by cisapride obtained a stable maximal level, methacholine 3.10^−6 M to evaluate a potential anti-cholinergic effect, was added to the bath fluid until a maximal contraction was obtained. The EC50 (i.e. the concentration that stimulates the maximal tone effect by 50%) of a compound, was calculated using linear regression analysis.

[8] = following oral administration; cited from earlier work

SMILES	ED50 ([1]; liquid stools within 1 hour after challenge, read-out: ED50, onset of diarrhoea with 1 hour)	ED50 ([1]; liquid stools within 2 hours after challenge, read-out: ED50, onset of diarrhoea with 2 hours)	ED50 ([1]; liquid stools within 3 hours after challenge, read-out: ED50, onset of diarrhoea with 3 hours)	ED50 ([1]; liquid stools within 4 hours after challenge, read-out: ED50, onset of diarrhoea with 4 hours)	ED50 [2]	ED50 TRY convulsions ([3]; central serotonin antagonistic activity)	ED50 TRY hyperaemia ([3]; peripheral serotonin antagonistic activity)	ED50 [4]	IC50 [5]	EC50 [6]	EC50 [7]	unchanged cisapride as share of urinary and fecal recovery [8]
COc1cc(N)c(Cl)cc1C(=O)N[C@@H]1CCNC[C@@H]1OC (stereo in doubt) [Compound 1, (+)-cis-4-amino-5-chloro-2-methoxy-N-(3-methoxy-4-piperidinyl)benzamide]	0.15 mg/kg	0.064 mg/kg	0.049 mg/kg	0.032 mg/kg	> 40 mg/kg	>40 mg/kg	4.7 mg/kg	> 40 mg/kg	0.093 µM	0.6 µM	1.9 µM	–
COc1cc(N)c(Cl)cc1C(=O)NC1CCN(CCCOc2ccc(F)cc2)CC1OC (stereo not drawn) [cisapride]	–	–	–	–	–	–	–	–	–	–	–	less than 10%
COc1cc(N)c(Cl)cc1C(=O)N[C@H]1CCNC[C@H]1OC (stereo in doubt) [Compound 2, (−)-cis-4-amino-5-chloro-2-methoxy-N-(3-methoxy-4-piperidinyl)benzamide]	–	–	–	–	–	–	–	–	0.45 µM	5 µM	11 µM	–
